Like-named read-outs stand apart in the source and are kept apart here.
Key:
Type in all cases: cell-based, human
[1] = test system: MDA-MB-231 cells; assay: Complement-mediated cell cytotoxicity assay (trypan blue), MDA-MB-231; details: for cell death under complement-positive conditions: 280 nM PEG-SMRwt-Clu or 560 nM SMRwt-CPP 60 min, then anti-CXCR4 antibody and NHS 60 min; for cell death under complement-negative conditions: 280 nM PEG-SMRwt-Clu or 560 nM SMRwt-CPP, 60 min
Experimental: 7-9. Complement-mediated cell cytotoxicity assay. Complement-mediated cell cytotoxicity assays were performed as previously described (Reiter et al., Mol Immunol. (1992) 29(6): p. 771-81). Briefly, MCF-7, MDA-MB-231 and K562 cells were either mock-transfected or transfected with mortalin siRNA. […] or SMRwt-CPP peptide or SMRmut-CPP peptide alone, or treated with SMR peptide combined with complement from normal human serum (NHS) or heat-inactivated normal human serum (NIS) for 60 min at 37° C. Percentage of cells lysed were determined by a trypan blue exclusion assay using the TC10™ Automated Cell Counter (Bio-Rad, Richmond Calif.). (FIG. 14, FIG. 15, Panel D).

[2] = test system: MCF-7 cells; assay: Complement-mediated cell cytotoxicity assay (trypan blue), MCF-7; details: for cell death under complement-positive conditions: 280 nM PEG-SMRwt-Clu or 560 nM SMRwt-CPP 60 min, then anti-CXCR4 antibody and NHS 60 min; for cell death under complement-negative conditions: 280 nM PEG-SMRwt-Clu or 560 nM SMRwt-CPP, 60 min
Experimental: 7-9. Complement-mediated cell cytotoxicity assay. Complement-mediated cell cytotoxicity assays were performed as previously described (Reiter et al., Mol Immunol. (1992) 29(6): p. 771-81). Briefly, MCF-7, MDA-MB-231 and K562 cells were either mock-transfected or transfected with mortalin siRNA. Cells were incubated with 1 μg/ml of anti-CXCR4 antibody for 30 min at 4° C., followed by treatment with PEG-SMRwt-Clu peptide or PEG-SMRmut-Clu peptide or SMRwt-CPP peptide or SMRmut-CPP peptide alone, or treated with SMR peptide combined with complement from normal human serum (NHS) or heat-inactivated normal human serum (NIS) for 60 min at 37° C. Percentage of cells lysed were determined by a trypan blue exclusion assay using the TC10™ Automated Cell Counter (Bio-Rad, Richmond Calif.). (FIG. 14, FIG. 15, Panel D).

[3] = test system: K562 exosomes; assay: Western blot of exosomal proteins (Alix, vimentin, mortalin), K562; details: K562 cells, 48 hr treatment
Experimental: 7-7. Protein analysis by Western blotting. Exosomes were isolated from cell culture supernatants as described above. Protein concentrations were determined by measuring absorbance at 280 nm (Nanodrop 2000). Cultured cells were treated with PEG-SMR-Clu, SMR-CPP peptides, MKT-077, Omeprazole or DMA at 37° C. for 48 hr. To evaluate mortalin, vimentin and exosome expression, Western blot analysis was performed using anti-mortalin (Grp-75), anti-Vimentin and anti-Alix antibodies, respectively (FIG. 12).
Exosomes and cell lysates were prepared by incubating 5-10 min at 95° C. in sample buffer. The lysates were subjected to SDS-PAGE under reducing conditions (150 mM DTT) in 4-20% Criterion™ TGX™ precast gels (BioRad, Hercules, Calif.) and then transferred onto a nitrocellulose membrane (Bio-Rad, Hercules, Calif.). Nitrocellulose membranes were blocked with 5% skim milk (MedSupply, Atlanta, Ga.) in TBS containing 0.05% Tween 20 (TBST) for 1 h at room temperature. The membranes were treated with anti-mortalin (Grp-75) mAb or anti-α-tubulin mAb for cell lysates (FIG. 15, Panels A and B) or with anti-Alix and anti-vimentin or anti-mortalin for exosomes (FIG. 12), followed by peroxidase-conjugated goat anti-mouse IgG. Bands were developed with an ECL chemiluminescent substrate (Santa Cruz Biotechnology, Santa Cruz, Calif.) and exposed to an ImageQuant LAS 4000 imaging system (GE Healthcare, Piscataway, N.J. 08854).

[4] = test system: MCF-7 breast cancer cells; assay: Annexin V-FITC/PI apoptosis assay, MCF-7; details: MCF-7 cells, 48 hours
Experimental: 1-5. Assessment of apoptosis. Breast cancer cells were seeded into 6-well plates at 4×10^5 cells per well and treated with either paclitaxel or cisplatin or various concentrations of SMR peptides for 24 hours or different time point. SMR as described above. Apoptosis was determined the using Annexin V-FITC detection kit (Nexcelom, MA) and visualized by Cellometer imaging cytometry.

[5] = test system: MDA-MB-231 breast cancer cells; assay: MTT proliferation assay, MDA-MB-231; details: MDA-MB-231 cells, 24 hours
Experimental: 1-3. Viability and proliferation. Human breast cancer cell lines were seeded into 96-well plates (5000 cells/well) and treated for 24 hours with various concentrations of SMR peptides including PEG-SMRwt-Clu, PEG-SMRwt and PEG-SMRmut to determine IC50 (inhibition concentration). Cell proliferation was determined using the MTT assay (Molecular Devices, Sunnyvale, Calif.). Control experiments were performed with MTT treated cells alone and untreated cells, and on this basis, the incubation times of 24 hr and 48 hr were used for an MTT assay of peptide-treated cells (Stockerta JC. et al., 2012 and Riss TL. et al., 2015).
7-4. Cell proliferation and cytotoxicity assay. Human breast cancer cell lines MCF-7, MDAMB-231, and leukemia K562 cells, and non-tumorigenic MCF-10A cells are seeded into 96-well plates (5000 cells/well) and treated for 24 hours with 0-1120 nM SMRwt-CPP or SMRmut-CPP (FIG. 10). Cell proliferation was determined using the MTT [3-(4,5-dimethylthiazol-2-yl)-2,5-diphenyltetrazolium bromide] dye assay by SpectraMax M5 Fluorescence Plate Reader (Molecular Devices. Sunnyvale, Calif.). Cell viability was estimated by the conversion of yellow MTT by mitochondrial dehydrogenases of living cells to purple formazon (MTT assay). Control experiments were performed with cells treated or untreated with MTT, and on this basis, an incubation time of 24 hours was used for MTT assays of peptide-treated cells (Huang, M. B., et al., Oncotarget, 2017. 8(7): pp. 11302-11315.). Statistical significance of results was determined from three independent experiments including triplet or quadruplet sets in each experiment.

Sequence | cell death under complement-positive conditions [1] [%] | cell death under complement-negative conditions [1] [%] | cell death under complement-positive conditions [2] [%] | cell death under complement-negative conditions [2] [%] | Alix expression in exosomes [3] | Mortalin expression in exosomes [3] | effect on paclitaxel/cisplatin-induced apoptosis [4] | IC50 ([5]; MTT, read-out: 50% inhibition of cell growth) [nM] | IC50 ([5]; read-out: SMR at IC50 concentration) [nM]
VGFPVAAVGFPVGRKKRRQRRRPPQ [SMRwt-CPP] | 9 | 3.6 | 29 | 2.1 | significantly decreased | significantly decreased | – | – | –
NXNVGFPVAAVGFPVHPLSKHPYWSQP (SEQ ID NO: 37) [PEG-SMRwt-Clu] | 76 | 3.6 | 26 | 2.1 | significantly decreased | significantly decreased | increased the level of drug-induced apoptosis | 280 | 280
